Results as given in ChEMBL document CHEMBL1201862, “PubChem BioAssay data set” (2004).
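Method: 48-hour compound exposure of cells in 96-well plates, five concentrations, linear interpolation of endpoints. Abbreviation: GI50, concentration required for 50% inhibition of growth.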 Active and inactive are the calls of the source. Cut-off read from the data, not from the text of the source: active = GI50 up to about 1.1 µM and inactive = higher.

Columns and labels:
Experiment in all cases: growth of human tumour cells (NCI), 48 h
OVCAR-3 = tested on: OVCAR-3
ACHN = tested on: ACHN
SF-295 = tested on: SF-295
LOX IMVI = tested on: LOX IMVI
UO-31 = tested on: UO-31
SNB-19 = tested on: SNB-19
Hs-578T = tested on: Hs-578T
NCI-H23 = tested on: NCI-H23
U-251 = tested on: U-251
SF-539 = tested on: SF-539
RXF 393 = tested on: RXF 393
MDA-MB-231 = tested on: MDA-MB-231
SK-MEL-2 = tested on: SK-MEL-2
COLO 205 = tested on: COLO 205
Malme-3M = tested on: Malme-3M
SK-MEL-28 = tested on: SK-MEL-28
OVCAR-5 = tested on: OVCAR-5
KM12 = tested on: KM12
NCI-H226 = tested on: NCI-H226
UACC-257 = tested on: UACC-257
HCT-15 = tested on: HCT-15
MCF7 = tested on: MCF7
TK-10 = tested on: TK-10
HCT-116 = tested on: HCT-116
IGROV-1 = tested on: IGROV-1
M14 = tested on: M14
NCI/ADR-RES = tested on: NCI/ADR-RES
MDA-MB-435 = tested on: MDA-MB-435
DU-145 = tested on: DU-145
A549 = tested on: A549
OVCAR-4 = tested on: OVCAR-4
NCI-H460 = tested on: NCI-H460
HOP-62 = tested on: HOP-62
786-0 = tested on: 786-0
SK-MEL-5 = tested on: SK-MEL-5
NCI-H522 = tested on: NCI-H522
SN12C = tested on: SN12C
UACC-62 = tested on: UACC-62
SF-268 = tested on: SF-268
HT-29 = tested on: HT-29
SK-OV-3 = tested on: SK-OV-3
T47D = tested on: T47D
SNB-75 = tested on: SNB-75
SW-620 = tested on: SW-620
CAKI-1 = tested on: CAKI-1
EKVX = tested on: EKVX
OVCAR-8 = tested on: OVCAR-8
MOLT-4 = tested on: MOLT-4
CCRF-CEM = tested on: CCRF-CEM
HL-60 = tested on: HL-60
HOP-92 = tested on: HOP-92
RPMI-8226 = tested on: RPMI-8226
SR = tested on: SR

CCCC(=O)/C=C/S/C=C/C(=O)CCC
GI50 (OVCAR-3): 4.09 µM (inactive)
GI50 (ACHN): 2.7 µM (inactive)
GI50 (SF-295): 23.9 µM (inactive)
GI50 (LOX IMVI): 2.38 µM (inactive)
GI50 (UO-31): 4.13 µM (inactive)
GI50 (SNB-19): 21.8 µM (inactive)
GI50 (Hs-578T): 4.67 µM (inactive)
GI50 (NCI-H23): 2.84 µM (inactive)
GI50 (U-251): 14.3 µM (inactive)
GI50 (SF-539): 10.7 µM (inactive)
GI50 (RXF 393): 4.9 µM (inactive)
GI50 (MDA-MB-231): 4.84 µM (inactive)
GI50 (SK-MEL-2): 27.5 µM (inactive)
GI50 (COLO 205): 2.23 µM (inactive)
GI50 (Malme-3M): 7.28 µM (inactive)
GI50 (SK-MEL-28): 3.96 µM (inactive)
GI50 (OVCAR-5): 3.41 µM (inactive)
GI50 (KM12): 15.3 µM (inactive)
GI50 (NCI-H226): 3.72 µM (inactive)
GI50 (UACC-257): 2.27 µM (inactive)
GI50 (HCT-15): 2.36 µM
GI50 (MCF7): 28.2 µM (inactive)
GI50 (TK-10): 2.51 µM (inactive)
GI50 (HCT-116): 1.65 µM (inactive)
GI50 (IGROV-1): 21.6 µM (inactive)
GI50 (M14): 3.28 µM (inactive)
GI50 (NCI/ADR-RES): 3.18 µM (inactive)
GI50 (MDA-MB-435): 5.46 µM (inactive)
GI50 (DU-145): 11.5 µM (inactive)
GI50 (A549): 28.3 µM (inactive)
GI50 (OVCAR-4): 4.42 µM (inactive)
GI50 (NCI-H460): 5.3 µM (inactive)
GI50 (HOP-62): 11.4 µM (inactive)
GI50 (786-0): 2.1 µM (inactive)
GI50 (SK-MEL-5): 4.26 µM (inactive)
GI50 (NCI-H522): 1.71 µM (inactive)
GI50 (SN12C): 13.2 µM (inactive)
GI50 (UACC-62): 12.2 µM (inactive)
GI50 (SF-268): 26.9 µM (inactive)
GI50 (HT-29): 3.26 µM (inactive)
GI50 (SK-OV-3): 34.4 µM (inactive)
GI50 (T47D): 4.09 µM (inactive)
GI50 (SNB-75): 27.2 µM (inactive)
GI50 (SW-620): 2.28 µM (inactive)
GI50 (CAKI-1): 2.86 µM (inactive)
GI50 (EKVX): 3.29 µM (inactive)
GI50 (OVCAR-8): 2.65 µM (inactive)

N=C(N)SCCc1ccccn1
GI50 (OVCAR-3): > 100 µM (inactive)
GI50 (ACHN): > 100 µM (inactive)
GI50 (LOX IMVI): > 100 µM (inactive)
GI50 (MOLT-4): > 100 µM (inactive)
GI50 (UO-31): > 100 µM (inactive)
GI50 (SNB-19): > 100 µM (inactive)
GI50 (U-251): > 100 µM (inactive)
GI50 (SF-539): > 100 µM (inactive)
GI50 (RXF 393): > 100 µM (inactive)
GI50 (SK-MEL-2): > 100 µM (inactive)
GI50 (COLO 205): > 100 µM (inactive)
GI50 (Malme-3M): > 100 µM (inactive)
GI50 (SK-MEL-28): > 100 µM (inactive)
GI50 (OVCAR-5): > 100 µM (inactive)
GI50 (CCRF-CEM): > 100 µM (inactive)
GI50 (KM12): > 100 µM (inactive)
GI50 (NCI-H226): > 100 µM (inactive)
GI50 (HCT-15): > 100 µM
GI50 (HCT-116): > 100 µM (inactive)
GI50 (IGROV-1): > 100 µM (inactive)
GI50 (M14): > 100 µM (inactive)
GI50 (A549): > 100 µM (inactive)
GI50 (OVCAR-4): > 100 µM (inactive)
GI50 (NCI-H460): > 100 µM (inactive)
GI50 (HOP-62): > 100 µM (inactive)
GI50 (786-0): > 100 µM (inactive)
GI50 (SK-MEL-5): > 100 µM (inactive)
GI50 (NCI-H522): > 100 µM (inactive)
GI50 (SN12C): > 100 µM (inactive)
GI50 (UACC-62): > 100 µM (inactive)
GI50 (HL-60): > 100 µM (inactive)
GI50 (HOP-92): > 100 µM (inactive)
GI50 (SF-268): > 100 µM (inactive)
GI50 (SK-OV-3): > 100 µM (inactive)
GI50 (T47D): > 100 µM (inactive)
GI50 (SW-620): > 100 µM (inactive)
GI50 (EKVX): > 100 µM (inactive)
GI50 (OVCAR-8): > 100 µM (inactive)
GI50 (RPMI-8226): > 100 µM (inactive)

CCCCCCCCCCCCCCCCCCOC[C@H](COP(=O)(O)O[C@H]1[C@H](O)[C@@H](O)[C@H](O)C[C@H]1O)OC
GI50 (SR): 12.1 µM (inactive)
GI50 (SNB-75): 13 µM (inactive)
GI50 (RPMI-8226): 11.8 µM (inactive)
